Laboratory results: patent publication US9758485B2, “Compounds for controlling arthropods” (priority 2013, dated 2017)

Assay: logP determination by HPLC on a reversed-phase column (C18), EEC Directive 79/831 Annex V.A8
Type: physicochemical
Settings: HPLC on reversed-phase column (C18)

First: CCS(=O)(=O)c1cc(C(F)(F)F)cc(Cl)c1-n1cc(-c2ccc(Cl)c(C(=O)NC3(C#N)CC3)c2)cn1 [I-T3-183]
Second: CCS(=O)(=O)c1cc(C(F)(F)F)cc(C#N)c1-n1cc(-c2ccc(Cl)c(C(=O)NC3(C#N)CC3)c2)cn1 [I-T3-190]
The “log P” value of the first is higher: 3.1 for the first, 2.9 for the second.

First: O=C(NC1CC1)c1cc(-c2cnn(-c3c(F)cc(C(F)(F)F)cc3Cl)c2)ccc1Cl [I-T3-186]
Second: N#CC1(NC(=O)c2cc(-c3cnn(-c4c(F)cc(C(F)(F)F)cc4Cl)c3)ccc2Cl)CC1 [I-T3-187]
The “log P” value of the first is higher: 3.6 for the first, 3.3 for the second.

Going from `N#CC1(NC(=O)c2cc(-c3cnn(-c4c(F)c(F)c(C(F)(F)F)c(F)c4F)c3)ccc2Cl)CC1` [I-T3-188] to `NC(=O)C1(NC(=O)c2cc(-c3cnn(-c4c(F)c(F)c(C(F)(F)F)c(F)c4F)c3)ccc2Cl)CC1` [I-T3-194], the “log P” value falls from 3.4 to 2.8.

Going from `CCSc1cc(C(F)(C(F)(F)F)C(F)(F)F)cc(SCC)c1-n1cc(-c2ccc(Cl)c(C(=O)NC3(C#N)CC3)c2)cn1` [I-T3-191] to `CCSc1cc(C(F)(C(F)(F)F)C(F)(F)F)cc(C)c1-n1cc(-c2ccc(Cl)c(C(=O)NC3(C#N)CC3)c2)cn1` [I-T3-202], the “log P” value falls from 4.7 to 4.5.

Compared with `CCSc1cc(C(F)(C(F)(F)F)C(F)(F)F)cc(Cl)c1-n1cc(-c2ccc(Cl)c(C(=O)NC3(C#N)CC3)c2)cn1` [I-T3-192], `N#CC1(NC(=O)c2cc(-c3cnn(-c4c(Cl)cc(C(F)(C(F)(F)F)C(F)(F)F)cc4I)c3)ccc2Cl)CC1` [I-T3-212] is lower in “log P” value: 4.5 for the first, 4.3 for the second.

`O=C(NC1CC1)c1cc(-c2cnn(-c3c(Cl)cc(C(F)(C(F)(F)F)C(F)(F)F)cc3C(F)F)c2)ccc1Cl` [I-T3-193] and `O=C(NC1CC1)c1cc(-c2cnn(-c3c(Cl)cc(C(F)(C(F)(F)F)C(F)(F)F)cc3OC(F)F)c2)ccc1Cl` [I-T3-214] are within 0.2 log units of each other in “log P” value: 4.4 for the first, 4.3 for the second.

First: CC[S+]([O-])c1cc(C(F)(C(F)(F)F)C(F)(F)F)cc(Cl)c1-n1cc(-c2ccc(Cl)c(C(=O)NC3(C#N)CC3)c2)cn1 (centres unmarked) [I-T3-195]
Second: CC[S+]([O-])c1cc(C(F)(C(F)(F)F)C(F)(F)F)cc(C)c1-n1cc(-c2ccc(Cl)c(C(=O)NC3(C#N)CC3)c2)cn1 (centres unmarked) [I-T3-206]
The “log P” value of the first is higher: 3.8 for the first, 3.6 for the second.

Going from `Cc1cc(C(F)(C(F)(F)F)C(F)(F)F)cc(C(F)(F)F)c1-n1cc(-c2cnc(Cl)c(C(=O)NCC3(C#N)CC3)c2)cn1` [I-T3-197] to `N#CC1(NC(=O)c2cc(-c3cnn(-c4c(Cl)cc(C(F)(C(F)(F)F)C(F)(F)F)cc4OC(F)F)c3)cnc2Cl)CC1` [I-T3-218], the “log P” value falls from 4.0 to 3.7.

`CCS(=O)(=O)c1cc(C(F)(C(F)(F)F)C(F)(F)F)cc(S(=O)(=O)CC)c1-n1cc(-c2ccc(Cl)c(C(=O)NC3(C#N)CC3)c2)cn1` [I-T3-198] and `CCS(=O)(=O)c1cc(C(F)(C(F)(F)F)C(F)(F)F)cc(C)c1-n1cc(-c2ccc(Cl)c(C(=O)NC3(C#N)CC3)c2)cn1` [I-T3-209] are within 0.2 log units of each other in “log P” value: 3.7 for the first, 3.8 for the second.

`CCS(=O)(=O)c1cc(C(F)(C(F)(F)F)C(F)(F)F)cc(Cl)c1-n1cc(-c2ccc(Cl)c(C(=O)NC3(C#N)CC3)c2)cn1` [I-T3-201] and `N#CC1(NC(=O)c2cc(-c3cnn(-c4c(Cl)cc(C(F)(C(F)(F)F)C(F)(F)F)cc4OC(F)F)c3)ccc2Cl)CC1` [I-T3-215] are within 0.2 log units of each other in “log P” value: 4.0 for the first, 4.1 for the second.

Compared with `CCSc1cc(C(F)(C(F)(F)F)C(F)(F)F)cc(C)c1-n1cc(-c2ccc(Cl)c(C(=O)NC3CC3)c2)cn1` [I-T3-203], `CCS(=O)(=O)c1cc(C(F)(C(F)(F)F)C(F)(F)F)cc(C)c1-n1cc(-c2ccc(Cl)c(C(=O)NC3CC3)c2)cn1` [I-T3-210] is lower in “log P” value: 4.6 for the first, 3.9 for the second.

First: CN(C(=O)c1cc(-c2cnn(-c3c(Cl)cc(C(F)(C(F)(F)F)C(F)(F)F)cc3C#N)c2)cnc1Cl)C1CC1 [I-T3-204]
Second: N#Cc1cc(C(F)(C(F)(F)F)C(F)(F)F)cc(Cl)c1-n1cc(-c2cnc(Cl)c(C(=O)NC3CC3)c2)cn1 [I-T3-205]
The “log P” value of the first is higher: 3.9 for the first, 3.5 for the second.

Going from `N#Cc1cc(C(F)(C(F)(F)F)C(F)(F)F)cc(Cl)c1-n1cc(-c2cnc(Cl)c(C(=O)NC3(C#N)CC3)c2)cn1` [I-T3-207] to `CN(C(=O)c1cc(-c2cnn(-c3c(Cl)cc(C(F)(C(F)(F)F)C(F)(F)F)cc3OC(F)F)c2)cnc1Cl)C1CC1` [I-T3-217], the “log P” value rises from 3.5 to 4.2.

Going from `CN(C(=O)c1cc(-c2cnn(-c3c(Cl)cc(C(F)(C(F)(F)F)C(F)(F)F)cc3OC(F)(F)F)c2)cnc1Cl)C1CC1` [I-T3-208] to `CN(C(=O)c1cc(-c2cnn(-c3c(Cl)cc(C(F)(C(F)(F)F)C(F)(F)F)cc3OC(F)(F)F)c2)ccc1Cl)C1CC1` [I-T3-219], the “log P” value rises from 4.6 to 5.1.

First: CCOc1cc(C(F)(C(F)(F)F)C(F)(F)F)cc(OCC)c1-n1cc(-c2cnc(Cl)c(C(=O)N(C)C3CC3)c2)cn1 [I-T3-211]
Second: CN(C(=O)c1cc(-c2cnn(-c3c(Cl)cc(C(O)(C(F)(F)F)C(F)(F)F)cc3Cl)c2)cnc1Cl)C1CC1 [I-T3-220]
The “log P” value of the first is higher: 4.7 for the first, 3.4 for the second.

Compared with `O=C(NC1CC1)c1cc(-c2cnn(-c3c(Cl)cc(C(F)(C(F)(F)F)C(F)(F)F)cc3I)c2)ccc1Cl` [I-T3-213], `CN(C(=O)c1cc(-c2cnn(-c3c(Cl)cc(C(F)(C(F)(F)F)C(F)(F)F)cc3OC(F)F)c2)ccc1Cl)C1CC1` [I-T3-216] is higher in “log P” value: 4.4 for the first, 4.7 for the second.

Same assay, conditions: HPLC-MS method a), Table I-T3

Compared with `Cc1cc(C(F)(C(F)(F)F)C(F)(F)F)cc(C)c1-n1cc(-c2cc(C(=O)NC3CC3)c(Cl)cc2F)cn1` [I-T3-14], `N#CC1(NC(=O)c2cccc(-c3cnn(-c4c(Cl)cc(C(F)(C(F)(F)F)C(F)(F)F)cc4Cl)c3)c2F)CC1` [I-T3-22] is lower in “logP^a)” value: 4.5 for the first, 4.1 for the second.

Same assay, conditions: HPLC-MS, reversed-phase column (C18)

First: O=C(NC1CC1)c1cccc(-c2cnn(-c3ncc(C(F)(F)F)cc3Cl)c2)c1 [I-T3-122]
Second: O=C(NC1CC1)c1cc(-c2cnn(-c3ncc(C(F)(C(F)(F)F)C(F)(F)F)cc3Cl)c2)ccc1Cl [I-T3-152]
The “log P” value of the first is lower: 3.0 for the first, 4.1 for the second.

First: CN(C(=O)c1cc(-c2cnn(-c3ccc(C(F)(C(F)(F)F)C(F)(F)F)cc3C(F)(F)F)c2)ccc1Cl)C1CC1 [I-T3-134]
Second: N#CC1(NC(=O)c2cc(-c3cnn(-c4ncc(C(F)(C(F)(F)F)C(F)(F)F)cc4SCC(F)(F)F)c3)ccc2Cl)CC1 [I-T3-171]
The “log P” value of the first is higher: 4.9 for the first, 4.5 for the second.

First: CC[S+]([O-])c1cc(C(F)(C(F)(F)F)C(F)(F)F)cnc1-n1cc(-c2ccc(Cl)c(C(=O)NC3(C#N)CC3)c2)cn1 (centres unmarked) [I-T3-153]
Second: CSc1cc(C(F)(C(F)(F)F)C(F)(F)F)cnc1-n1cc(-c2ccc(Cl)c(C(=O)NC3(C#N)CC3)c2)cn1 [I-T3-166]
The “log P” value of the first is lower: 3.7 for the first, 4.3 for the second.

First: NC(=S)C1(NC(=O)c2cc(-c3cnn(-c4c(Cl)cc(C(F)(C(F)(F)F)C(F)(F)F)cc4C(F)(F)F)c3)cnc2Cl)CC1 [I-T3-159]
Second: N#CC1(NC(=O)c2cc(-c3cnn(-c4c(Cl)cc(C(F)(F)F)cc4[N+](=O)[O-])c3)ccc2Cl)CC1 [I-T3-169]
The “log P” value of the first is higher: 3.8 for the first, 3.2 for the second.

First: CCSc1cc(C(F)(F)F)cc(Cl)c1-n1cc(-c2ccc(Cl)c(C(=O)NC3(C#N)CC3)c2)cn1 [I-T3-170]
Second: CCSc1cc(C(F)(F)F)cc(C#N)c1-n1cc(-c2ccc(Cl)c(C(=O)NC3(C#N)CC3)c2)cn1 [I-T3-177]
The “log P” value of the first is higher: 3.7 for the first, 3.4 for the second.

Going from `CCSc1cc(C(F)(F)F)cc(Cl)c1-n1cc(-c2ccc(Cl)c(C(=O)NC3CC3)c2)cn1` [I-T3-172] to `CC[S+]([O-])c1cc(C(F)(F)F)cc(Cl)c1-n1cc(-c2ccc(Cl)c(C(=O)NC3CC3)c2)cn1` (centres unmarked) [I-T3-179], the “log P” value falls from 3.9 to 3.0.

First: N#Cc1cc(C(F)(F)F)cc(Cl)c1-n1cc(-c2ccc(Cl)c(C(=O)NC3CC3)c2)cn1 [I-T3-174]
Second: CC[S+]([O-])c1cc(C(F)(F)F)cc(C#N)c1-n1cc(-c2ccc(Cl)c(C(=O)NC3CC3)c2)cn1 (centres unmarked) [I-T3-181]
The “log P” value of the first is higher: 3.1 for the first, 2.7 for the second.

Compared with `CCS(=O)(=O)c1cc(C(F)(F)F)cc(Cl)c1-n1cc(-c2ccc(Cl)c(C(=O)NC3CC3)c2)cn1` [I-T3-178], `CCS(=O)(=O)c1cc(C(F)(F)F)cc(C#N)c1-n1cc(-c2ccc(Cl)c(C(=O)NC3CC3)c2)cn1` [I-T3-180] is lower in “log P” value: 3.2 for the first, 2.8 for the second.

Same assay, conditions: reversed-phase HPLC column (C18), HPLC, reversed-phase C18, acetonitrile/water with formic acid, 55° C.; read-out: logP

Compared with `NNc1c(Cl)cc(C(O)(C(F)(F)F)C(F)(F)F)cc1Cl` [2-(3,5-dichloro-4-hydrazinophenyl)-1,1,1,3,3,3-hexafluoropropan-2-ol], `CCc1cc(C(F)(C(F)(F)F)C(F)(F)F)cc(Cl)c1N` [2-chloro-6-ethyl-4-heptafluoroisopropylaniline] is higher in chromatographic logP: 1.92 for the first, 4.67 for the second.

Compared with `FC(F)(F)C(F)(c1cnc(-n2cc(Br)cn2)c(Cl)c1)C(F)(F)F` [2-(4-bromo-1H-pyrazol-1-yl)-3-chloro-5-(1,1,1,2,3,3,3-heptafluoropropan-2-yl)pyridine], `O=C(NC1CC1)c1cc(-c2cnn(-c3ncc(C(F)(C(F)(F)F)C(F)(F)F)cc3Cl)c2)ccc1Cl` [2-chloro-5-{1-[3-chloro-5-(1,1,1,2,3,3,3-heptafluoropropan-2-yl)pyridin-2-yl]-1H-pyrazol-4-yl}-N-cyclopropylbenzamide] is lower in chromatographic logP: 4.74 for the first, 4.08 for the second.

Compared with `Cc1cc(C(F)(C(F)(F)F)C(F)(F)F)cc(Br)c1N` [2-bromo-6-methyl-4-heptafluoroisopropylaniline], `Cc1cc(C(F)(C(F)(F)F)C(F)(F)F)cc(C(F)(F)F)c1N` [4-heptafluoroisopropyl-2-methyl-6-trifluoromethylaniline] is higher in chromatographic logP: 4.38 for the first, 4.67 for the second.

First: CCSc1cc(C(F)(C(F)(F)F)C(F)(F)F)cnc1-n1cc(-c2ccc(Cl)c(C(=O)NC3CC3)c2)cn1 [I-T3-156, 2-Chloro-N-cyclopropyl-5-{1-[3-(ethylsulphanyl)-5-(1,1,1,2,3,3,3-heptafluoropropan-2-yl)pyridin-2-yl]-1H-pyrazol-4-yl}benzamide]
Second: CC[S+]([O-])c1cc(C(F)(C(F)(F)F)C(F)(F)F)cnc1-n1cc(-c2ccc(Cl)c(C(=O)NC3CC3)c2)cn1 (centres unmarked) [I-T3-157, 2-Chloro-N-cyclopropyl-5-{1-[3-(ethylsulphinyl)-5-(1,1,1,2,3,3,3-heptafluoropropan-2-yl)pyridin-2-yl]-1H-pyrazol-4-yl}benzamide]
The chromatographic logP of the first is higher: 4.69 for the first, 3.79 for the second.

Same assay, conditions: reversed-phase HPLC column (C18), HPLC-MS method a), reversed-phase column (C18); read-out: logP^a)

Compared with `CCSc1cc(C(F)(C(F)(F)F)C(F)(F)F)cnc1-n1cc(-c2ccc(Cl)c(C(=O)NC3CC3)c2)cn1` [I-T3-156, 2-Chloro-N-cyclopropyl-5-{1-[3-(ethylsulphanyl)-5-(1,1,1,2,3,3,3-heptafluoropropan-2-yl)pyridin-2-yl]-1H-pyrazol-4-yl}benzamide], `CC[S+]([O-])c1cc(C(F)(C(F)(F)F)C(F)(F)F)cnc1-n1cc(-c2ccc(Cl)c(C(=O)NC3CC3)c2)cn1` (centres unmarked) [I-T3-157, 2-Chloro-N-cyclopropyl-5-{1-[3-(ethylsulphinyl)-5-(1,1,1,2,3,3,3-heptafluoropropan-2-yl)pyridin-2-yl]-1H-pyrazol-4-yl}benzamide] is lower in chromatographic logP: 4.7 for the first, 3.8 for the second.

Same assay, conditions: reversed-phase HPLC column (C18), HPLC-MS, reversed-phase column (C18); read-out: log P

Going from `CCSc1cc(C(F)(C(F)(F)F)C(F)(F)F)cnc1-n1cc(-c2ccc(Cl)c(C(=O)NC3CC3)c2)cn1` [I-T3-156, 2-Chloro-N-cyclopropyl-5-{1-[3-(ethylsulphanyl)-5-(1,1,1,2,3,3,3-heptafluoropropan-2-yl)pyridin-2-yl]-1H-pyrazol-4-yl}benzamide] to `CC[S+]([O-])c1cc(C(F)(C(F)(F)F)C(F)(F)F)cnc1-n1cc(-c2ccc(Cl)c(C(=O)NC3CC3)c2)cn1` (centres unmarked) [I-T3-157, 2-Chloro-N-cyclopropyl-5-{1-[3-(ethylsulphinyl)-5-(1,1,1,2,3,3,3-heptafluoropropan-2-yl)pyridin-2-yl]-1H-pyrazol-4-yl}benzamide], the chromatographic logP falls from 4.7 to 3.8.
